The results in this text go back to patent US5510366A, “Indole derivatives, salts thereof, and congestive heart failure therapeutic agents comprising the same” (Kowa Co., Ltd., priority 1993, dated 1996).

The structures appear in SMILES notation. Where a name gives a salt, the structure may show the parent alone.

One experiment deals with hind-leg blood flow. Description: Action on hind-leg blood flow in anesthetized dogs. Format: in vivo, Hybrid adult dogs. To be noted: 100 μg into femoral artery. The procedure:
<Action on hind-leg blood flow in anesthetized dogs>
Hybrid adult dogs were anesthetized by intravenous injection of 30 mg/kg of sodium pentobarbital. After administration of heparin, an extracorporeal circulation circuit was formed in femoral artery. The blood flows at hind-legs were measured by fixing an electromagnetic blood flow meter probe in the circuit. The test compound at a dose of 100 μg was administered into femoral artery via a tube provided in the circuit. The results in Table 3 show the rate of blood flow increase.
For the molecule `Cc1cc2c(c3c1NC(=O)C3(C)C)OC(CN)C2.Cl` (centres unmarked) [Example 1 (a), 2-Aminomethyl-2,3,7,8-tetrahydro-5,8,8-trimethyl-6H-furo 2,3-e!indol-7-onehydrochloride], the “Rate of blood flow increase (%)” value stood at 192%.

Still in this experiment, the particulars now being: Canis lupus familiaris, 100 μg into femoral artery, read-out: Rate of blood flow increase (%).
As for `Cc1cc2c(c3c1NC(=O)C3(C)C)O[C@@H](CN)[C@@H]2C` (relative stereo) [Example 3 (5) (Former component), (2R*,3R*)-2-aminomethyl-2,3,7,8-tetrahydro-3,5,8,8-tetramethyl-6H-furo 2,3-e!indol-7-one.cndot.hydrochloride], the change in vivo at 0.1 mg amounted to 128%.

On to `Cc1cc2c(c3c1NC(=O)C3(C)C)O[C@@](C)(CN)[C@@H]2C` (relative stereo) [Example 55 (B isomer), (2R*,3R*)-2-aminomethyl-2,3,5,8,8-pentamethyl-2,3,7,8-tetrahydro-6H-furo 2 ,3-e!indol-7one.cndot.hydrochloride], for which the change in vivo at 0.1 mg is 55%.

Turning to `Cc1cc2c(c3c1NC(=O)C3(C)C)OCC2CN` (centres unmarked) [Example 13 (3), 3-Aminomethyl-2,3,7,8-tetrahydro-5,8,8-trimethyl-6H-furo 2,3-e!indol-7-one.cndot.hydrochloride], the change in vivo at 0.1 mg amounted to 55%.

On to `Cc1cc2c(c3c1NC(=O)C3(C)C)OC(Cn1ccnc1)C2` (centres unmarked) [Example 16, 2-(1-Imidazolyl)methyl-2,3,7,8-tetrahydro-5,8,8-trimethyl-6H-furo 2,3-e!indol-7-one.cndot.hydrochloride], for which the change in vivo at 0.1 mg was found to be 90%.

`CCCCNCC1Cc2cc(C)c3c(c2O1)C(C)(C)C(=O)N3` (centres unmarked) [Example 18, 2-n-Butylaminomethyl-2,3,7,8-tetrahydro-5,8,8-trimethyl-6H-furo 2,3-e!indol-7-one.cndot.hydrochloride]: the change in vivo at 0.1 mg came to 145%.

`Cc1cc2c(c3c1NC(=O)C3(C)C)OC(CN1CCN(Cc3ccccc3)CC1)C2` (centres unmarked) [Example 20, 2-(4-Benzyl-1-piperadinyl)methyl-2,3,7,8-tetrahydro-5,8,8-trimethyl-6H-furo 2,3-e!indol-7-one.cndot.dihydrochloride]: the change in vivo at 0.1 mg amounted to 96%.

With `Cc1cc2c(c3c1NC(=O)C3(C)C)OC(CN1CCNCC1)C2` (centres unmarked) [Example 22, 2-(1-Piperadinyl)methyl-2,3,7,8-tetrahydro-5,8,8-trimethyl-6H-furo 2,3-e!in dol-7-one.cndot.dihydrochloride], the change in vivo at 0.1 mg was 121%.

Consider `COc1ccc(C(=O)N2CCN(CC3Cc4cc(C)c5c(c4O3)C(C)(C)C(=O)N5)CC2)cc1OC` (centres unmarked) [Example 23, 2-4-(3,4-dimethoxybenzoyl)-1-piperadinyl!methyl-2,3,7,8-tetrahydro-5,8,8-trimethyl-6H-furo 2,3-e!indol-7-one.cndot.hydrochloride], for which the change in vivo at 0.1 mg worked out at 81%.

For `CCc1cc2c(c3c1NC(=O)C3(C)C)OC(CN)C2` (centres unmarked) [Example 26 (6), 2-Aminomethyl-8,8-dimethyl-5-ethyl-2,3,7,8-tetrahydro-6H-furo 2,3-e!indol-7-one.cndot.hydrochloride], the change in vivo at 0.1 mg was 216%.

A further experiment relates to ventricular fibrillation. Description: Antiarrhythmic action against chloroform in mice (suppression of ventricular fibrillation). Format: in vivo. The conditions noted are these: Mus musculus, 20 min, 100 mg/kg, 20 minutes before chloroform, read-out: Rate of suppression (%) of ventricular fibrillation. The procedure: <Antiarrhythmic action against chloroform in mice>
A test compound was administered to mice at a dose of 100 mg/kg. After 20 minutes, mice were placed in a pot filled with chloroform. Mice were taken out immediately after respiratory arrest. Electrocardiogram was recorded at the 11th induction, and ventricular tachycardia, ventricular fibrillation, and the time until cardiac arrest were measured.
As to `Cc1cc2c(c3c1NC(=S)C3(C)C)O[C@@H](CN)[C@@H]2C` (relative stereo) [Example 35, (2R*,3R*)-2-aminomethyl-2,3,7,8-tetrahydro-3,5,8,8-tetramethyl-6H-furo 2,3-e!indol-7-thione.cndot.hydrochloride], the inhibition in vivo at 100 mg/kg turned out to be 100%.

As for `Cc1cc2c(c3c1NC(=O)C3(C)C)OC(CNCc1ccccc1)C2` (centres unmarked) [Example 15, 2-Benzylaminomethyl-2,3,7,8-tetrahydro-5,8,8-trimethyl-6H-furo 2,3-e!indol-7-one.cndot.hydrochloride], the inhibition in vivo at 100 mg/kg was determined as 100%.

As for `Cc1cc2c(c3c1NC(=O)C3(C)C)OC(Cn1ccnc1)C2` (centres unmarked) [Example 16, 2-(1-Imidazolyl)methyl-2,3,7,8-tetrahydro-5,8,8-trimethyl-6H-furo 2,3-e!indol-7-one.cndot.hydrochloride], the inhibition in vivo at 100 mg/kg was found to be 90%.

As for `Cc1cc2c(c3c1NC(=O)C3(C)C)OC(CN(C)C)C2` (centres unmarked) [Example 17, 2-Dimethylaminomethyl-2,3,7,8-tetrahydro-5,8,8-trimethyl-6H-furo 2,3-e!indol-7-one.cndot.hydrochloride], the inhibition in vivo at 100 mg/kg stood at 100%.

For `CCCCCCc1cc2c(c3c1NC(=O)C3(C)C)OC(CN)C2` (centres unmarked) [Example 25 (9), 2-Aminomethyl-8,8-dimethyl-5-n-hexyl-2,3,7,8-tetrahydro-6H-furo 2,3-e!indol-7-one.cndot.hydrochloride], the inhibition in vivo at 100 mg/kg stood at 100%.

On to `CCCCc1cc2c(c3c1NC(=O)C3(C)C)OC(CN)C2` (centres unmarked) [Example 28 (9)HCl, 2Aminomethyl-5-n-butyl-8,8-dimethyl-2,3,7,8-tetrahydro-6H-furo 2,3-e!indol-7-one.cndot.hydrochloride], for which the inhibition in vivo at 100 mg/kg was found to be 90%.

Turning to `CCOC(=O)c1cc2c3c(ccc2[nH]1)CC(CN)O3` (centres unmarked) [Example 47 (5), 2-Aminomethyl-2,3-dihydro-7-ethoxycarbonyl-6H-furo 2,3-e!indole.cndot.hydrochloride], the inhibition in vivo at 100 mg/kg was determined as 90%.

The experiment is the same for the next values; noted with them: Mus musculus, 20 min, Dose: 30 mg/kg, 20 minutes before chloroform, read-out: Rate of suppression (%) of ventricular fibrillation.
With `Cc1cc2c(c3c1NC(=O)C3(C)C)O[C@@](C)(CN)[C@@H]2C` (relative stereo) [Example 55 (B isomer), (2R*,3R*)-2-aminomethyl-2,3,5,8,8-pentamethyl-2,3,7,8-tetrahydro-6H-furo 2 ,3-e!indol-7one.cndot.hydrochloride], the inhibition in vivo at 30 mg/kg came out at 100%.

The next experiment has as its system atrium specimen. Description: Inotropic action in atrium specimen and anti-chronotropic action in guinea pigs. To be noted: Cavia porcellus; guinea pig atrium; 10^-5 M; "light atrium", left atrium stimulated at 1 Hz; read-out: Rate contraction increase (%). The procedure: <Inoropic action in atrium specimen and anti-chronotropic action in guinea pigs>
After bruising on the head, guinea pigs were dehematized by sectioning carotid arteries and their heart was enucleated. Right and left atriums were taken out. These atriums were suspended in Krebs-Henseleit solution wherein 95% O2-5 % CO2 was bubbled. The tension was measured by a strain gauge and recorded via an amplifier. Pulsation at the right atrium was counted via a tachometer to determine the heart rate. Electric stimulation, twice a magnitude of the ceiling value at 1 Hz, 5 msec, was given to the left atrium. The test compound was administered at an interval of 5 minutes.
The results, shown in Table 2, indicate the rate of contraction increase of the light atrium at a dose of 10^-5 M of the test compound.
For `CC[C@H]1c2cc(C)c3c(c2O[C@H]1CN)C(C)(C)C(=O)N3` (relative stereo) [Example 7 (6)(b), (2R* ,3S*)-2-aminomethyl-3-ethyl-2,3,7,8-tetrahydro-5,8,8-trimethyl-6H-furo 2,3-e!indol-7-one.cndot.hydrochloride], the activation at 10 µM worked out at 27%.

Take `Cc1cc2c(c3c1NC(=O)C3(C)C)O[C@@](C)(CN)[C@@H]2C` (relative stereo) [Example 55 (B isomer), (2R*,3R*)-2-aminomethyl-2,3,5,8,8-pentamethyl-2,3,7,8-tetrahydro-6H-furo 2 ,3-e!indol-7one.cndot.hydrochloride]: the activation at 10 µM was 24%.

As to `Cc1cc2c(c3c1NC(=O)C3(C)C)OC(CN)C2` (centres unmarked) [Example 1 (9), 2-Aminomethyl-2,3,7,8-tetrahydro-5,8,8-trimethyl-6H-furo 2,3-e!indol-7-onehydrochloride], the activation at 10 µM turned out to be 13%.

On to `Cc1cc2c(c3c1NC(=O)C3(C)C)OC(C)(CN)C2` (centres unmarked) [Example 2 (8), 2-Aminomethyl-2,3,7,8-tetrahydro-2,5,8,8-tetramethyl-6H-furo 2,3-e!indol-7-one.cndot.hydrochloride], for which the activation at 10 µM came to 23%.

For the molecule `CNCC1Cc2cc(C)c3c(c2O1)C(C)(C)C(=O)N3` (centres unmarked) [Example 14, 2-Methylaminomethyl-2,3,7,8-tetrahydro-5,8,8-trimethyl-6H-furo 2,3-e!indol-7-one.cndot.hydrochloride], the activation at 10 µM is 20%.

`Cc1cc2c(c3c1NC(=O)C3(C)C)OC(CN1CCCCC1)C2` (centres unmarked) [Example 19, 2-(1-Piperidinyl)methyl-2,3,7,8-tetrahydro-5,8,8-trimethyl-6H-furo 2,3-e!in dol-7-one.cndot.hydrochloride]: the activation at 10 µM was determined as 28%.

For `CCCCCCc1cc2c(c3c1NC(=O)C3(C)C)OC(CN)C2` (centres unmarked) [Example 25 (9), 2-Aminomethyl-8,8-dimethyl-5-n-hexyl-2,3,7,8-tetrahydro-6H-furo 2,3-e!indol-7-one.cndot.hydrochloride], the activation at 10 µM was 46%.

For the molecule `Cc1c(C)c2c(c3c1CC(CN)O3)C(C)(C)C(=O)N2` (centres unmarked) [Example 30 (8)HCl, 2-Aminomethyl-2,3,7,8-tetrahydro-4,5,8,8-tetramethyl-6H-furo 2,3-e!indol-7-one.cndot.hydrochloride], the activation at 10 µM is 28%.
